Reference: ChEMBL document CHEMBL3085654, “Synthesis and evaluation of N-acylamino acids derivatives of triazenes. Activation by tyrosinase in human melanoma cell lines” (Eur J Med Chem, 2013)
Active and inactive are the calls of the source. No cut-off for these calls is given here.

B1: Tyrosinase (Agaricus bisporus), O42713 (protein)
chain: MSLIATVGPTGGVKNRLNIVDFVKNEKFFTLYVRSLELLQAKEQHDYSSFFQLAGIHGLPFTEWAKERPSMNLYKAGYCTHGQVLFPTWHRTYLSVLEQILQGAAIEVAKKFTSNQTDWVQAAQDLRQPYWDWGFELMPPDEVIKNEEVNITNYDGKKISVKNPILRYHFHPIDPSFKPYGDFATWRTTVRNPDRNRREDIPGLIKKMRLEEGQIREKTYNMLKFNDAWERFSNHGISDDQHANSLESVHDDIHVMVGYGKIEGHMDHPFFAAFDPIFWLHHTNVDRLLSLWKAINPDVWVTSGRNRDGTMGIAPNAQINSETPLEPFYQSGDKVWTSASLADTARLGYSYPDFDKLVGGTKELIRDAIDDLIDERYGSKPSSGARNTAFDLLADFKGITKEHKEDLKMYDWTIHVAFKKFELKESFSLLFYFASDGGDYDQENCFVGSINAFRGTAPETCANCQDNENLIQEGFIHLNHYLARDLESFEPQDVHKFLKEKGLSYKLYSRGDKPLTSLSVKIEGRPLHLPPGEHRPKYDHTQARVVFDDVAVHVIN

Legend:
[1] = (§1) Induction of apoptosis in human MNT1 cells assessed as apoptotic/necrotic cells at 100 uM after 48 hrs by APC-labeled annexin V and 7-AAD staining-based flow cytometric analysis relative to control; assay type: functional
[2] = (§2) Induction of apoptosis in human MNT1 cells assessed as apoptotic/necrotic cells at 50 uM after 48 hrs by APC-labeled annexin V and 7-AAD staining-based flow cytometric analysis relative to control; assay type: functional
MNT1 [3] = experiment: Induction of apoptosis in human MNT1 cells assessed as apoptotic/necrotic cells after 48 hrs by APC-labeled annexin V and 7-AAD staining-based flow cytometric analysis; assay type: functional, cell-based
[4] = Half life in 80% human plasma at 10^-5 M by HPLC analysis; assay type: ADME, cell-free
[5] = Half life in phosphate buffer assessed as mushroom tyrosinase-mediated prodrug conversion at 10^-5 M at pH 7.4 by HPLC analysis; assay type: ADME; settings: agaricus bisporus, pH 7.4, 10 µM
[6] = Half life in PBS buffer at 10^-5 M at pH 7.4 by HPLC analysis; assay type: ADME
[7] = Octanol-phosphate buffer apparent partition coefficient, log P of the compound at pH7.4 after 30 mins by HPLC analysis; assay type: physicochemical; settings: pH 7.4
M8 = experiment: Induction of apoptosis in human M8 cells assessed as apoptotic/necrotic cells at 50 to 100 uM after 48 hrs by APC-labeled annexin V and 7-AAD staining-based flow cytometric analysis; assay type: functional, cell-based
SK-MEL-30 [8] = experiment: Induction of apoptosis in human SK-MEL-30 cells assessed as apoptotic/necrotic cells at 100 uM after 48 hrs by APC-labeled annexin V and 7-AAD staining-based flow cytometric analysis relative to control; assay type: functional
SK-MEL-30 [9] = experiment: Induction of apoptosis in human SK-MEL-30 cells assessed as apoptotic/necrotic cells at 50 uM after 48 hrs by APC-labeled annexin V and 7-AAD staining-based flow cytometric analysis relative to control; assay type: functional
[10] = Stability in phosphate buffer assessed as mushroom tyrosinase-mediated prodrug conversion at 10^-5 M at pH 7.4 after 1 hr by HPLC analysis in presence of mushroom tyrosinase; assay type: ADME; settings: agaricus bisporus, pH 7.4, 1 h, 10 µM
MNT1 [11] = experiment: as §1; assay type: functional
MNT1 [12] = experiment: as §2; assay type: functional
[13] = Chemical stability in PBS buffer at 10^-5 M at pH 7.4 after 15 days by HPLC analysis; assay type: physicochemical; settings: pH 7.4, 360 h, 10 µM
[14] = substrate: CC(=O)N[C@@H](Cc1ccc(O)cc1)C(=O)N(C)/N=N/c1ccc(C#N)cc1; experiment: (§3) Ratio of Kcat to Km for mushroom tyrosinase; settings: Agaricus bisporus
[15] = substrate: COC(=O)c1ccc(/N=N/N(C)C(=O)[C@H](Cc2ccc(O)cc2)NC(C)=O)cc1; experiment: as §3; settings: Agaricus bisporus
[16] = substrate: CC(=O)N[C@@H](Cc1ccc(O)cc1)C(=O)N(C)/N=N/c1ccc(C#N)cc1; experiment: (§4) Activity at mushroom tyrosinase by Michaelis-Menten plot analysis; settings: Agaricus bisporus
[17] = substrate: COC(=O)c1ccc(/N=N/N(C)C(=O)[C@H](Cc2ccc(O)cc2)NC(C)=O)cc1; experiment: as §4; settings: Agaricus bisporus
[18] = substrate: NCCc1ccc(O)c(O)c1; experiment: as §4; settings: Agaricus bisporus
[19] = substrate: NCCc1ccc(O)cc1; experiment: as §4; settings: Agaricus bisporus
[20] = substrate: N[C@@H](Cc1ccc(O)cc1)C(=O)O; experiment: as §4; settings: Agaricus bisporus

| Molecule | Activity [1] | Activity [2] | Activity (MNT1 [3]) | half-life at 10 µM [4] | t1/2 [5] | half-life at 10 µM [6] | logD at 0.5 h [7] | other results |
| --- | --- | --- | --- | --- | --- | --- | --- | --- |
| CC(=O)N[C@@H](Cc1ccc(O)cc1)C(=O)N(C)/N=N/c1ccc(C(C)=O)cc1 | 11.23% | 7.88% | Dose-dependent effect | 1.41 h | 0.33 h | 56.6 h | 2.33 |  |
| CC(=O)N[C@@H](Cc1ccc(O)cc1)C(=O)N(C)/N=N/c1ccc(C#N)cc1 | 17.01% | 8.5% | Dose-dependent effect | 1.23 h | 0.26 h | 42.7 h | 2.14 | Activity (M8): inactive; Activity (SK-MEL-30 [8]): 12.47%; Activity (SK-MEL-30 [9]): 10.41% |
| COC(=O)c1ccc(/N=N/N(C)C(=O)[C@H](Cc2ccc(O)cc2)NC(C)=O)cc1 |  |  |  | 2.8 h | 0.305 h | 75.1 h | 2.12 |  |
| CC(=O)c1ccc(/N=N/N(C)C(=O)[C@H](Cc2ccc(O)cc2)NC(=O)OC(C)(C)C)cc1 |  |  |  | 9.54 h |  | 72.2 h | 3.85 | Stability [10]: Stable |
| Cn1nnc2c(C(N)=O)ncn2c1=O |  |  |  |  |  |  |  | Activity (M8): Active; Activity (SK-MEL-30 [8]): Active; Activity (SK-MEL-30 [9]): Active; Activity (MNT1 [11]): Active; Activity (MNT1 [12]): Active |
| CC(=O)N[C@@H](Cc1ccc(O)cc1)C(=O)N(C)/N=N/c1ccc(Br)cc1 |  |  |  | 6.8 h | 0.148 h |  | 3.36 | Stability [13]: Stable |
| CN(/N=N/c1ccc(C#N)cc1)C(=O)[C@H](Cc1ccc(O)cc1)NC(=O)OC(C)(C)C |  |  |  | 8.1 h |  | 48.5 h | 3.9 | Stability [10]: Stable |
| CC(=O)N[C@@H](Cc1ccc(O)cc1)C(=O)N(C)/N=N/c1ccc(C(N)=O)cc1 |  |  |  | 5.19 h | 0.29 h | 40.6 h | 1.27 |  |
| CCOC(=O)c1ccc(/N=N/N(C)C(=O)[C@H](Cc2ccc(O)cc2)NC(C)=O)cc1 | 21.23% | 17.46% | Dose-dependent effect | 5.32 h | 0.3 h | 70.3 h | 2.96 |  |
| B1 |  |  |  |  |  |  |  | kcat/Km [14]: 151 M⁻¹ s⁻¹; kcat/Km [15]: 246 M⁻¹ s⁻¹; Km [16]: 200 µM; Vmax [16]: 5.4 ×10⁻⁶ mM/min; kcat [16]: 0.03 s⁻¹; Km [17]: 220 µM; Vmax [17]: 9.7 ×10⁻⁶ mM/min; kcat [17]: 0.05 s⁻¹; Km [18]: 280 µM; Km [19]: 540 µM; Km [20]: 250 µM |
